Reference: patent publication US8895571B2, “Isoindolinone and pyrrolopyridinone derivatives as Akt inhibitors” (Incyte Corporation, priority 2011, dated 2014)

Experiments:
Format in all cases: biochemical
Full length Akt1 = target: T1, Full length Akt1 (Homo sapiens, UniProt P31749); experiment: In vitro Akt kinase enzymatic assay (HTRF), Akt1; settings: 0.4 nM Akt1, substrate solution with 5 mM ATP, 25° C. 1 hr
T1 construct: Full length Akt1 (cat #P2999); purchased PerkinElmer P2999
Procedure: (§1) Compounds herein were tested for inhibitory activity of Akt targets according to the following in vitro assay. Full length Akt1 (cat #P2999), Akt2 (cat #PV3184), Akt3 (cat #PV3185), peptide substrate, Ulight-Crosstide (cat #TRF0106-M), Ultra-Europium anti-phospho-Crosstide (cat #TRF-0202-M), and 10×LANCE detection buffer (cat #CR97-100) were purchased from PerkinElmer. In general, assay buffer conditions were chosen based on obtaining optimal enzymatic and linear activities. The assay buffer contains 50 mM HEPES, 10 mM MgCl2, 5 mM DTT, 0.005% Tween20 at pH 7.8. Compound stock (0.001 mM) was prepared in DMSO. The compound plate was prepared by 3-fold and 11-point serial dilutions. 0.5 μL of the compound in DMSO was transferred from the compound plate to the assay plate. Enzyme solution (0.4 nM of Akt1, 0.6 nM of Akt2 or 0.6 nM of Akt3) was prepared in the assay buffer. Note that the enzyme concentration given is based on the given stock concentration reported by the vendor. 0.1 μM substrate solution was prepared in the assay buffer with addition of 5 mM ATP. 10 μL of the enzyme solution was added to the assay plate and then 10 μL of substrate solution was added to the assay plate. The plate was protected from light and the reaction was incubated at 25° C. for 1 hr. The reaction was stopped by adding 10 μL of a solution containing 30 mM EDTA, and 3 nM Ultra Europium anti-phospho Crosstide in 1× detection buffer. The plate was incubated for 15-30 min at room temperature and HTRF (homogenous time resolved fluorescence) was measured on a plate reader. Percentage of inhibition was calculated for each concentration and IC50 value was generated from curve fitting. See Table 8 for data related to compounds of the examples.

Full length Akt2 = target: T2, Full length Akt2 (Homo sapiens, UniProt P31751); experiment: In vitro Akt kinase enzymatic assay (HTRF), Akt2; settings: 0.6 nM Akt2, substrate solution with 5 mM ATP, 25° C. 1 hr
T2 construct: Full length Akt1 (cat #P2999), Akt2 (cat #PV3184); purchased PerkinElmer PV3184
Procedure: as §1

Full length Akt3 = target: T3, Full length Akt3 (Homo sapiens, UniProt Q9Y243); experiment: In vitro Akt kinase enzymatic assay (HTRF), Akt3; settings: 0.6 nM Akt3, substrate solution with 5 mM ATP, 25° C. 1 hr
T3 construct: Full length Akt1 (cat #P2999), Akt2 (cat #PV3184), Akt3 (cat #PV3185); purchased PerkinElmer PV3185
Procedure: as §1

Full length PKA = target: T4, Full length PKA (Homo sapiens, UniProt P17612); experiment: PKA in vitro enzymatic assay (HTRF); settings: 0.035 nM enzyme solution, substrate solution with 5 mM ATP, 25° C. 1 hr
T4 construct: Full length PKA (cat #P2912); purchased Invitrogen P2912
Procedure: Full length PKA (cat #P2912), peptide substrate, fluorescein CREBtide peptide (cat #PV3508), Tb-Crebtide p-S133 Ab (cat #PV3566), and Lanthascreen TR-FRET Dilution Buffer stored (part # PV3574) were purchased from Invitrogen. In general, assay buffer conditions were chosen based on obtaining optimal and linear enzymatic activities. The assay buffer contains 50 mM HEPES, 10 mM MgCl2, 5 mM DTT, 0.005% Tween20 at pH 7.8. Compound stock (0.001 mM) was prepared in DMSO. The compound plate was prepared by 3-fold and 11-point serial dilutions. 0.5 μL of the compound in DMSO was transferred from the compound plate to the assay plate. 0.035 nM enzyme solution was prepared in the assay buffer. Note that the enzyme concentration given is based on the given stock concentration reported by the vendor. 0.1 μM substrate solution was prepared in the assay buffer with addition of 5 mM ATP. 10 μL of the enzyme solution was added to the assay plate and then 10 μL of substrate solution was added to the assay plate. The plate was protected from light and the reaction was incubated at 25° C. for 1 hr. The reaction was stopped by adding 10 μL of a solution containing 30 mM EDTA, and 1.5 nM Tb-Crebtide p-S133 Ab in 1× detection buffer. The plate was incubated for 15-30 min at room temperature and HTRF (homogenous time resolved fluorescence) was measured on a plate reader. Percentage of inhibition was calculated for each concentration and IC50 value was generated from curve fitting. See Table 8 for data related to compounds of the examples.

T1 sequence (P31749 whole entry): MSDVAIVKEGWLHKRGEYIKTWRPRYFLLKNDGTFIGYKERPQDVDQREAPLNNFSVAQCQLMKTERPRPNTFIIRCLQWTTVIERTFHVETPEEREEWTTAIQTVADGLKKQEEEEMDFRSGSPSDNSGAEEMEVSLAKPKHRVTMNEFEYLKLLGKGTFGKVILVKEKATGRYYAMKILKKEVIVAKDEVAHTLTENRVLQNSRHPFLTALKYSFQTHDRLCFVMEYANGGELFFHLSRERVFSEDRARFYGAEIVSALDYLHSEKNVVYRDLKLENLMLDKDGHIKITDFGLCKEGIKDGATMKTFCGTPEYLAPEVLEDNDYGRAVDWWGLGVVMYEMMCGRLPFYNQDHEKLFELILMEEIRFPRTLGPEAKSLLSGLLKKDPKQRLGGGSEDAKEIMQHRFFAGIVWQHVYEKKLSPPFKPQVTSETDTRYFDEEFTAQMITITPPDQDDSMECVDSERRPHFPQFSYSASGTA
T2 sequence (P31751 whole entry): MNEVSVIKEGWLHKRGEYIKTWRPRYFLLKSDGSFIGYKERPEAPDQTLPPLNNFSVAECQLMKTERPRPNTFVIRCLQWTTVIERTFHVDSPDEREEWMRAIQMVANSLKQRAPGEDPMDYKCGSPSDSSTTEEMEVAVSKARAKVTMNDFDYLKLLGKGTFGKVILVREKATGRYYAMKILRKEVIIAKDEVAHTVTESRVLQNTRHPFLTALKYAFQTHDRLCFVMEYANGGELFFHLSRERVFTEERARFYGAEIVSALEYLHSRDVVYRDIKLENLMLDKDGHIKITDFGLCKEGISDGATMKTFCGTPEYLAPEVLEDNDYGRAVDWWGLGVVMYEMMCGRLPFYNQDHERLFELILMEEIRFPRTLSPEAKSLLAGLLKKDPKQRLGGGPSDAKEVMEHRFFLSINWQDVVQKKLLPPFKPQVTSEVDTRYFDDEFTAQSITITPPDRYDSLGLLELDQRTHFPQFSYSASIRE
T3 sequence (Q9Y243 whole entry): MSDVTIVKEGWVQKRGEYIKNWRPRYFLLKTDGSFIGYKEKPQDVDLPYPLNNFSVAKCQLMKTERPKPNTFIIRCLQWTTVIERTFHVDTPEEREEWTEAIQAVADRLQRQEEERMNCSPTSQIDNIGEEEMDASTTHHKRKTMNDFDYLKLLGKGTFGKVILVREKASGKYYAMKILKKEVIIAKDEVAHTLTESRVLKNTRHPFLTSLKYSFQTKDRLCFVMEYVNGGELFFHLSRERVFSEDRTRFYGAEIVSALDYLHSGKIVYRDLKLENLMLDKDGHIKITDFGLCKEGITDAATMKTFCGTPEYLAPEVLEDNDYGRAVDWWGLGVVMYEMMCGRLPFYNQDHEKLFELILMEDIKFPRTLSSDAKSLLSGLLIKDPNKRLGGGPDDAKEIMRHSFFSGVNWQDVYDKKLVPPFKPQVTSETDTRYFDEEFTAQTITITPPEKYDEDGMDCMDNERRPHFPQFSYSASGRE

| SMILES | IC50 (Full length Akt1) | IC50 (Full length Akt2) | IC50 (Full length Akt3) | IC50 (Full length PKA) |
| --- | --- | --- | --- | --- |
| Cn1ncc(Cl)c1-c1ccc2c(c1)CN([C@H](CN)Cc1cccc(-c3ccsc3)c1)C2=O [Example 71, 2-{(1S)-2-amino-1-[3-(3-thienyl)benzyl]ethyl}-5-(4-chloro-1-methyl-1H-pyrazol-5-yl)isoindolin-1-one] | < 0.5 µM | 0.5 to 5 µM | 0.5 to 5 µM | > 5 µM |
| COc1cc(C[C@@H](CN)N2Cc3cc(-c4ccnn4C)ccc3C2=O)ccn1 [Example 77, 2-{(1S)-2-amino-1-[(2-methoxypyridin-4-yl)methyl]ethyl}-5-(1-methyl-1H-pyrazol-5-yl)isoindolin-1-one] | 0.5 to 5 µM | > 5 µM | > 5 µM | > 5 µM |
| Cn1nccc1-c1ccc2c(c1)CN([C@H](CN)Cc1cscn1)C2=O [Example 82, 2-[(1S)-2-amino-1-(1,3-thiazol-4-ylmethyl)ethyl]-5-(1-methyl-1H-pyrazol-5-yl)isoindolin-1-one] | < 0.5 µM | 0.5 to 5 µM | 0.5 to 5 µM | > 5 µM |
| Cn1cc(-c2cccc(C[C@@H](CN)N3Cc4cc(-c5ccnn5C)ccc4C3=O)c2)cn1 [Example 83, 2-{(1S)-2-amino-1-[3-(1-methyl-1H-pyrazol-4-yl)benzyl]ethyl}-5-(1-methyl-1H-pyrazol-5-yl)isoindolin-1-one] | 0.5 to 5 µM | 0.5 to 5 µM | > 5 µM | > 5 µM |
| Cn1nccc1-c1ccc2c(c1)CN([C@H](CN)Cc1cccc(-c3ccsc3)c1)C2=O [Example 84, 2-{(1S)-2-amino-1-[3-(3-thienyl)benzyl]ethyl}-5-(1-methyl-1H-pyrazol-5-yl)isoindolin-1-one] | < 0.5 µM | 0.5 to 5 µM | 0.5 to 5 µM | > 5 µM |
| CCCOCc1cnn(C)c1-c1cc2c(cn1)C(=O)N([C@H](CN)Cc1cccc(F)c1)C2 [Example 96, 2-[(1S)-2-amino-1-(3-fluorobenzyl)ethyl]-6-[4-(1-propoxymethyl)-1-methyl-1H-pyrazol-5-yl]-1,2-dihydro-3H-pyrrolo[3,4-c]pyridin-3-one] | < 0.5 µM | < 0.5 µM | < 0.5 µM | > 5 µM |
| CCSCc1cnn(C)c1-c1cc2c(cn1)C(=O)N([C@H](CN)Cc1cccc(F)c1)C2 [Example 98, 2-[(1S)-2-amino-1-(3-fluorobenzyl)ethyl]-6-[4-(ethylthiomethyl)-1-methyl-1H-pyrazol-5-yl]-1,2-dihydro-3H-pyrrolo[3,4-c]pyridin-3-one] | 0.5 to 5 µM | > 5 µM | 0.5 to 5 µM | > 5 µM |
| CSCc1cnn(C)c1-c1cc2c(cn1)C(=O)N([C@H](CN)Cc1cccc(F)c1)C2 [Example 99, 2-[(1S)-2-amino-1-(3-fluorobenzyl)ethyl]-6-[4-(methylthiomethyl)-1-methyl-1H-pyrazol-5-yl]-1,2-dihydro-3H-pyrrolo[3,4-c]pyridin-3-one] | < 0.5 µM | 0.5 to 5 µM | 0.5 to 5 µM | > 5 µM |
| Cn1ncc(Cl)c1-c1ccc2c(n1)CN([C@H](CN)Cc1cccc(F)c1)C2=O [Example 109, 6-[(1S)-2-amino-1-(3-fluorobenzyl)ethyl]-2-(4-chloro-1-methyl-1H-pyrazol-5-yl)-6,7-dihydro-5H-pyrrolo[3,4-b]pyridin-5-one] | < 0.5 µM | 0.5 to 5 µM | 0.5 to 5 µM | > 5 µM |
| Cn1nccc1-c1ccc2c(n1)CN([C@H](CN)Cc1cccc(F)c1)C2=O [Example 110, 6-[(1S)-2-amino-1-(3-fluorobenzyl)ethyl]-2-(1-methyl-1H-pyrazol-5-yl)-6,7-dihydro-5H-pyrrolo[3,4-b]pyridin-5-one] | < 0.5 µM | 0.5 to 5 µM | 0.5 to 5 µM | > 5 µM |
| Cn1nccc1-c1ccc2c(n1)CN([C@H](CN)Cc1ccccc1)C2=O [Example 111, 6-[(1S)-2-amino-1-benzylethyl]-2-(1-methyl-1H-pyrazol-5-yl)-6,7-dihydro-5H-pyrrolo[3,4-b]pyridin-5-one] | 0.5 to 5 µM | 0.5 to 5 µM | > 5 µM | > 5 µM |
